Measured values taken from patent US7504411B2, “2,3,6-Trisubstituted-4-pyrimidone derivatives” (Mitsubishi Tanabe Pharma Corporation, priority 2003, dated 2009).

What follows are molecules tested against T1, bovine cerebral TPK1 (Bos taurus, UniProt A0A3Q1MT31) (assay: Inhibitory activity against P-GS1 phosphorylation by bovine cerebral TPK1). Conditions: 41.7 μM [γ-32P]ATP, 25° C., 2 hours.
T1 construct: Phosphorylation by Bovine Cerebral TPK1; from tissue; host or cells: bovine brain (cerebrum)
T1 sequence (A0A3Q1MT31 1-419): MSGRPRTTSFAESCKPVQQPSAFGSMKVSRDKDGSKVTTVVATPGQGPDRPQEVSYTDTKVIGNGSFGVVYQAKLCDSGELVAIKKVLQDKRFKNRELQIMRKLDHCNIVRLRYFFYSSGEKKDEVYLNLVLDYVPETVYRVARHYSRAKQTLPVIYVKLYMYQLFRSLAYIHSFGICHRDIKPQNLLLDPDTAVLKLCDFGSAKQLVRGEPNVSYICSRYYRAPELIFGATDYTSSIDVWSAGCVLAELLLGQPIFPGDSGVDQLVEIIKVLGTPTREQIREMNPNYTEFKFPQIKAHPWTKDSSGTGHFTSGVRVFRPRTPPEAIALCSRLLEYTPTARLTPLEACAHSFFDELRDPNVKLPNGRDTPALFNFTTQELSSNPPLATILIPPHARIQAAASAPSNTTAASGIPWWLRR
Format: biochemical
Procedure: Inhibitory Activity of the Medicament of the Present Invention against P-GS1 Phosphorylation by Bovine Cerebral TPK1
A mixture containing 100 mM MES-sodium hydroxide (pH 6.5), 1 mM magnesium acetate, 0.5 mM EGTA, 5 mM β-mercaptoethanol, 0.02% Tween 20, 10% glycerol, 12 μg/ml P-GS1, 41.7 μM [γ-^32P] ATP (68 kBq/ml), bovine cerebral TPK1 and a compound shown in Table (a final mixture contained 1.7% DMSO deriving from a solution of a test compound prepared in the presence of 10% DMSO) was used as a reaction system. The phosphorylation was started by adding ATP, and the reaction was conducted at 25° C. for 2 hours, and then stopped by adding 21% perchloric acid on ice cooling. The reaction mixture was centrifuged at 12,000 rpm for 5 minutes and adsorbed on P81 paper (Whatmann), and then the paper was washed four times with 75 mM phosphoric acid, three times with water and once with acetone. The paper was dried, and the residual radioactivity was measured using a liquid scintillation counter.
With `Cn1c(N2CCNC(c3ccccc3)C2)nc(-c2ccncc2)cc1=O` (stereo not drawn) [XA361] the IC50 was 18 nM. `Cn1c(N2CCCC(C#N)(c3ccccc3)C2)nc(-c2ccncc2)cc1=O` (stereo not drawn) [XB80] was tested, and the IC50 was 230 nM. For `COc1cc(F)ccc1C1CN(c2nc(-c3ccncn3)cc(=O)n2C)CCN1Cc1ccccc1` (stereo not drawn) [YA0864], the IC50 was 216 nM.
